Among the data in patent publication US20060270880A1, “7-Azaindole derivatives as cox2 inhibitors” (priority 2003, published 2006) are IC50 values, retold here.

What is called IC50 is the point on the concentration scale where inhibition reaches its midpoint.

The target of the test is T1, microsomal h-COX2 (Homo sapiens, UniProt P35354).
T1 construct: made in house; host or cells: baculovirus infected SF9 cells (microsomal preparation)
T1 sequence (P35354 18-604): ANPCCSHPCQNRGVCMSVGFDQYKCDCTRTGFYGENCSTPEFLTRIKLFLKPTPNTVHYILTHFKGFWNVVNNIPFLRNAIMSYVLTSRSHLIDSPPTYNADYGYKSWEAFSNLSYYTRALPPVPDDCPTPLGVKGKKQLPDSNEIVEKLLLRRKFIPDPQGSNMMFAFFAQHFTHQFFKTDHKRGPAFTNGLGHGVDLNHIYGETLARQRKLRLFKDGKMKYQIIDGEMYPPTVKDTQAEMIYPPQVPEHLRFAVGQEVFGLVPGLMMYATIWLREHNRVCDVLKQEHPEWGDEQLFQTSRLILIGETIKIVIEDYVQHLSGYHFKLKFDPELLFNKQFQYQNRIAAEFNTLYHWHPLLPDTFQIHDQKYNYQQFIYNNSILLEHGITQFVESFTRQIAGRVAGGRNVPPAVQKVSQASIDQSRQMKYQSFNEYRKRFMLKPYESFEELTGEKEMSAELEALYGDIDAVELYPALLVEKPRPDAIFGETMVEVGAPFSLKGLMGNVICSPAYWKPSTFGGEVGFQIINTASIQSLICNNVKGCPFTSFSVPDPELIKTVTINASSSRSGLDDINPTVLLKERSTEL
Put plainly: Microsomal assay: inhibition of microsomal h-COX2 (PGE2 by EIA). Conditions: microsomal preparation from baculovirus infected SF9 cells; 1 hour preincubation; 0.1 μM arachidonic acid, 10 minutes; read-out: IC50 values for inhibition of COX-2. In kind it is biochemical. The procedure:
Inhibitory activity against microsomal h-COX2 was assessed against a microsomal preparation from baculovirus infected SF9 cells. An aliquot of microsomal preparation was thawed slowly on ice and a 1/40,000 dilution prepared from it into the assay buffer (sterile water, degassed with argon containing 100 mM HEPES (pH 7.4), 10 mM EDTA (pH7.4), 1 mM phenol, 1 mM reduced glutathione, 20 mg/ml gelatin and 0.001 mM Hematin). Once diluted the enzyme solution was then sonicated for 5 seconds (Branson sonicator, setting 4, 1 cm tip) to ensure a homogeneous suspension. 155 μl enzyme solution was then added to each well of a 96-well microtitre plate containing either 5 μl test und (40× required test concentration) or 5 μl DMSO for controls. Plates were then mixed and incubated at room temperature for 1 hour. Following the incubation period, 40 μl of 0.5 μM arachidonic acid was added to each well to give a final concentration of 0.1 μM. Plates were then mixed and incubated for exactly 10 minutes (room temperature) prior to addition of 25 μl 1M HCl (hydrochloric acid) to each well to stop the reaction. 25 μl of 1M NaOH (sodium hydroxide) was then added to each well to neutralise the solution prior to determination of PGE2 levels by enzyme immunoassay (EIA).
As for `CS(=O)(=O)c1ccc(-c2ccc3ccn(Cc4ccccn4)c3n2)cc1` [Example 16], the IC50 was at most 500 nM. In the case of `CS(=O)(=O)c1ccc(-c2ccc3ccn(Cc4ccc(Cl)cc4)c3n2)cc1` [Example 18], the IC50 is at most 500 nM.

Take `CS(=O)(=O)c1ccc(-c2ccc3ccn(S(=O)(=O)c4ccccc4)c3n2)cc1` [Example 9]: the IC50 was at most 500 nM. Take `CS(=O)(=O)c1ccc(-c2ccc3ccn(Cc4ccncc4)c3n2)cc1` [Example 15]: the IC50 is at most 500 nM. The result for `CS(=O)(=O)c1ccc(-c2ccc3c(C=O)cn(CC4CCCCC4)c3n2)cc1` [Example 4, 1-(cyclohexanemethyl)-6-[4-(methylsulfonyl)phenyl]-7-azaindole-3-carboxaldehyde] reads at most 500 nM.

On to `CS(=O)(=O)c1ccc(-c2ccc3ccn(Cc4ccccc4)c3n2)cc1` [Example 12], for which the IC50 is at most 500 nM. The result for `CS(=O)(=O)c1ccc(-c2ccc3ccn(-c4ccc(F)cc4)c3n2)cc1` [Example 13] reads at most 500 nM; that for `CCC(CC)Cn1ccc2ccc(-c3ccc(S(C)(=O)=O)cc3)nc21` [Example 10], at most 500 nM; that for `CS(=O)(=O)c1ccc(-c2ccc3ccn(-c4ccccc4)c3n2)cc1` [Example 2, 1-Phenyl-6-[4-(methylsulfonyl)phenyl]-7-azaindole], at most 500 nM. Consider `CC(C)Cc1cn(CC2CCCCC2)c2nc(-c3ccc(S(C)(=O)=O)cc3)ccc12` [Example 3, 1-(cyclohexanemethyl)-3-(2-methylprop-1-yl)-6-[4-(methylsulfonyl)phenyl]-7-azaindole], for which the IC50 is at most 500 nM.

For the compound `CS(=O)(=O)c1ccc(-c2ccc3ccn(Cc4cccnc4)c3n2)cc1` [Example 14], the IC50 is at most 500 nM. As for `Cc1cn(CC2CCCCC2)c2nc(-c3ccc(S(C)(=O)=O)cc3)ccc12` [Example 6, 1-{cyclohexanemethyl)-3-methyl-6-[4-(methylsulfonyl)phenyl]-7-azaindole], the IC50 was at most 500 nM. The result for `CS(=O)(=O)c1ccc(-c2ccc3ccn(CC4CCCCC4)c3n2)cc1` [Example 1, 1-(cyclohexanemethyl)-6-[4-(methylsulfonyl)phenyl]-7-azaindole] reads at most 500 nM.
